Values after ≈ are worked out from the molar mass of the structure shown.

A short description of one data set: Slurry stability in purified water (XRPD). It is filed as physicochemical. The following applies: stirred overnight at room temperature. The method, then:
About 30 mg of Form land Form 5D, Form 6, and Form 8 were mixed with about 2.5 ml of purified water, and the mixtures were stirred for overnight at room temperature. The wet solids were isolated by centrifugation, and further dried in vacuum for 2.5 hours before being analyzed with XRPD.
As to `CCc1nc2ccccn2c1C(=O)c1cc(Br)c(O)c(C#N)c1` [Form 6, 3-bromo-5-[(2-ethylimidazo[1,2-a]pyridin-3-yl)carbonyl]-2-hydroxybenzonitrile], the “Crystal form after slurry in purified water (XRPD)” value was “transformed into Form 1”.

`CCc1nc2ccccn2c1C(=O)c1cc(Br)c(O)c(C#N)c1` [Form 8, 3-bromo-5-[(2-ethylimidazo[1,2-a]pyridin-3-yl)carbonyl]-2-hydroxybenzonitrile]: the “Crystal form after slurry in purified water (XRPD)” value is given as “transformed into Form 1”.

A further data set in a line: Dynamic vapor sorption/desorption (DVS). It counts as physicochemical. The following applies: 25° C., 85% RH. The method, then: Moisture sorption/desorption data were collected on a SMS DVS intrinsic Vapor Sorption Analyzer under a nitrogen purge. The DVS experiment generally includes a moisture sorption step and a moisture desorption step. […] In other words, the sample is considered to have reached an equilibrium between moisture sorption and desorption under the relative humidity when dm/dt≤0.01%. The sample was maintained at the temperature of 25° C. with relative humidity varied from 0% to 95%, and back to 0% at an increment of 5% RH each step.
For the molecule `CCc1nc2ccccn2c1C(=O)c1cc(Br)c(O)c(C#N)c1` [Form 6, 3-bromo-5-[(2-ethylimidazo[1,2-a]pyridin-3-yl)carbonyl]-2-hydroxybenzonitrile], the “DVS (85% RH)” value is 0.35%.

For `CCc1nc2ccccn2c1C(=O)c1cc(Br)c(O)c(C#N)c1` [Form 7, 3-bromo-5-[(2-ethylimidazo[1,2-a]pyridin-3-yl)carbonyl]-2-hydroxybenzonitrile], the “DVS (85% RH)” value is recorded as 1.93%.

`CCc1nc2ccccn2c1C(=O)c1cc(Br)c(O)c(C#N)c1` [Form 8, 3-bromo-5-[(2-ethylimidazo[1,2-a]pyridin-3-yl)carbonyl]-2-hydroxybenzonitrile]: the “DVS (85% RH)” value is on record as 4.66%.

`CCc1nc2ccccn2c1C(=O)c1cc(Br)c(O)c(C#N)c1` [Form 9, 3-bromo-5-[(2-ethylimidazo[1,2-a]pyridin-3-yl)carbonyl]-2-hydroxybenzonitrile]: the “DVS (85% RH)” value came out at 0.29%.

Take `CCc1nc2ccccn2c1C(=O)c1cc(Br)c(O)c(C#N)c1` [Form 10, 3-bromo-5-[(2-ethylimidazo[1,2-a]pyridin-3-yl)carbonyl]-2-hydroxybenzonitrile]: the “DVS (85% RH)” value is recorded as 2.37%.

For `CCc1nc2ccccn2c1C(=O)c1cc(Br)c(O)c(C#N)c1` [Form 11, 3-bromo-5-[(2-ethylimidazo[1,2-a]pyridin-3-yl)carbonyl]-2-hydroxybenzonitrile], the “DVS (85% RH)” value was 6.18%.

As for `CCc1nc2ccccn2c1C(=O)c1cc(Br)c(O)c(C#N)c1` [Form 12, 3-bromo-5-[(2-ethylimidazo[1,2-a]pyridin-3-yl)carbonyl]-2-hydroxybenzonitrile], the “DVS (85% RH)” value stood at 8.07%.

A short description of another data set: Solubility in water, buffers and bio-relevant media (37° C., 24 h shaking, HPLC). It counts as physicochemical. The settings on record: 0.1N HCl, 37° C., 24 h. The method, then: The solubility of Form 1, Form 2, Form 5D, Form 6, Form 8, and Form 11 was analyzed in water, 0.1NaqueousHCl, pH4.5 acetate buffer solution, pH6.8 phosphate buffer solution, simulated gastric fluid (SGF), Fasted State Simulated Intestinal Fluid (FaSSIF), and Fed State Simulated Intestinal Fluid (FeSSIF).
About 5 mg or 10 mg of sample was weighed out into each vial and mixed with about 5 ml of medium to form a solution. The target concentration for the potassium salt in water was 2 mg/ml; and the target concentration for all other forms were 1 mg/mL. All samples were kept shaking at 200 rounds per minute (rpm) under 37° C. for 24 hours. The pH value of these samples were determined after shaking for 24 hours. Subsequently, they were centrifuged at the speed of 12000 rpm for 2 mins. The supernatant was diluted with methanol as necessary, and the concentrations were determined by HPLC. When the solubility of potassium salt was tested in water, the supernatant was diluted 100 times, while no other samples were diluted. The HPLC analysis utilizes Agilent Eclipse XDB-C8 4.6*150 mm, 5 μm column at 40° C., a mobile phase of 0.1% TFA: ACN=70:30, an injection volume of 10 μl, a flow rate of 1.0 ml/min, a diluent of methanol, and a detection wavelength of 234 nm.
`CCc1nc2ccccn2c1C(=O)c1cc(Br)c(O)c(C#N)c1` [Form 6, 3-bromo-5-[(2-ethylimidazo[1,2-a]pyridin-3-yl)carbonyl]-2-hydroxybenzonitrile] came in with a Solubility of 4.6 µg/mL (≈ 12.4 µM).

`CCc1nc2ccccn2c1C(=O)c1cc(Br)c(O)c(C#N)c1` [Form 8, 3-bromo-5-[(2-ethylimidazo[1,2-a]pyridin-3-yl)carbonyl]-2-hydroxybenzonitrile] returned a Solubility of 5.3 µg/mL (≈ 14.3 µM).

In turn, `CCc1nc2ccccn2c1C(=O)c1cc(Br)c(O)c(C#N)c1` [Form 11, 3-bromo-5-[(2-ethylimidazo[1,2-a]pyridin-3-yl)carbonyl]-2-hydroxybenzonitrile] had a Solubility of 6.8 µg/mL (≈ 18.4 µM).

Still in this data set, the particulars now being: FaSSIF, 37° C., 24 h.
The molecule `CCc1nc2ccccn2c1C(=O)c1cc(Br)c(O)c(C#N)c1` [Form 6, 3-bromo-5-[(2-ethylimidazo[1,2-a]pyridin-3-yl)carbonyl]-2-hydroxybenzonitrile] had a Solubility of 45.8 µg/mL (≈ 124 µM).

Turning to `CCc1nc2ccccn2c1C(=O)c1cc(Br)c(O)c(C#N)c1` [Form 8, 3-bromo-5-[(2-ethylimidazo[1,2-a]pyridin-3-yl)carbonyl]-2-hydroxybenzonitrile], the Solubility came to 14.5 µg/mL (≈ 39.2 µM).

`CCc1nc2ccccn2c1C(=O)c1cc(Br)c(O)c(C#N)c1` [Form 11, 3-bromo-5-[(2-ethylimidazo[1,2-a]pyridin-3-yl)carbonyl]-2-hydroxybenzonitrile]: the Solubility was 28.4 µg/mL (≈ 76.7 µM).

Staying with this data set, now noted: FeSSIF, 37° C., 24 h.
`CCc1nc2ccccn2c1C(=O)c1cc(Br)c(O)c(C#N)c1` [Form 6, 3-bromo-5-[(2-ethylimidazo[1,2-a]pyridin-3-yl)carbonyl]-2-hydroxybenzonitrile] registered a Solubility of 4.4 µg/mL (≈ 11.9 µM).

Molecule `CCc1nc2ccccn2c1C(=O)c1cc(Br)c(O)c(C#N)c1` [Form 8, 3-bromo-5-[(2-ethylimidazo[1,2-a]pyridin-3-yl)carbonyl]-2-hydroxybenzonitrile] had a Solubility of 8.6 µg/mL (≈ 23.2 µM).

As for `CCc1nc2ccccn2c1C(=O)c1cc(Br)c(O)c(C#N)c1` [Form 11, 3-bromo-5-[(2-ethylimidazo[1,2-a]pyridin-3-yl)carbonyl]-2-hydroxybenzonitrile], the Solubility stood at 3.4 µg/mL (≈ 9.18 µM).

The same data set, now with this note: SGF, 37° C., 24 h.
On to `CCc1nc2ccccn2c1C(=O)c1cc(Br)c(O)c(C#N)c1` [Form 6, 3-bromo-5-[(2-ethylimidazo[1,2-a]pyridin-3-yl)carbonyl]-2-hydroxybenzonitrile], for which the Solubility was 3.3 µg/mL (≈ 8.91 µM).

For `CCc1nc2ccccn2c1C(=O)c1cc(Br)c(O)c(C#N)c1` [Form 8, 3-bromo-5-[(2-ethylimidazo[1,2-a]pyridin-3-yl)carbonyl]-2-hydroxybenzonitrile], the Solubility came out at 3.5 µg/mL (≈ 9.45 µM).

On to `CCc1nc2ccccn2c1C(=O)c1cc(Br)c(O)c(C#N)c1` [Form 11, 3-bromo-5-[(2-ethylimidazo[1,2-a]pyridin-3-yl)carbonyl]-2-hydroxybenzonitrile], for which the Solubility is 5.8 µg/mL (≈ 15.7 µM).

The data set is the same for the next values; noted with them: Water, 37° C., 24 h.
`CCc1nc2ccccn2c1C(=O)c1cc(Br)c(O)c(C#N)c1` [Form 6, 3-bromo-5-[(2-ethylimidazo[1,2-a]pyridin-3-yl)carbonyl]-2-hydroxybenzonitrile]: the Solubility is 0.4 µg/mL (≈ 1.08 µM).

The molecule `CCc1nc2ccccn2c1C(=O)c1cc(Br)c(O)c(C#N)c1` [Form 8, 3-bromo-5-[(2-ethylimidazo[1,2-a]pyridin-3-yl)carbonyl]-2-hydroxybenzonitrile] returned a Solubility of 0.5 µg/mL (≈ 1.35 µM).

In the case of `CCc1nc2ccccn2c1C(=O)c1cc(Br)c(O)c(C#N)c1` [Form 11, 3-bromo-5-[(2-ethylimidazo[1,2-a]pyridin-3-yl)carbonyl]-2-hydroxybenzonitrile], the Solubility is 1914.5 µg/mL (≈ 5170 µM).

The data set is the same for the next values; noted with them: pH 4.5 acetate buffer, 37° C., 24 h.
For `CCc1nc2ccccn2c1C(=O)c1cc(Br)c(O)c(C#N)c1` [Form 6, 3-bromo-5-[(2-ethylimidazo[1,2-a]pyridin-3-yl)carbonyl]-2-hydroxybenzonitrile], the Solubility was 0.5 µg/mL (≈ 1.35 µM).

On to `CCc1nc2ccccn2c1C(=O)c1cc(Br)c(O)c(C#N)c1` [Form 8, 3-bromo-5-[(2-ethylimidazo[1,2-a]pyridin-3-yl)carbonyl]-2-hydroxybenzonitrile], for which the Solubility was found to be 0.6 µg/mL (≈ 1.62 µM).

In turn, `CCc1nc2ccccn2c1C(=O)c1cc(Br)c(O)c(C#N)c1` [Form 11, 3-bromo-5-[(2-ethylimidazo[1,2-a]pyridin-3-yl)carbonyl]-2-hydroxybenzonitrile] had a Solubility of 1.7 µg/mL (≈ 4.59 µM).

Still in this data set, the particulars now being: pH 6.8 phosphate buffer, 37° C., 24 h.
As for `CCc1nc2ccccn2c1C(=O)c1cc(Br)c(O)c(C#N)c1` [Form 6, 3-bromo-5-[(2-ethylimidazo[1,2-a]pyridin-3-yl)carbonyl]-2-hydroxybenzonitrile], the Solubility turned out to be 25.7 µg/mL (≈ 69.4 µM).

In the case of `CCc1nc2ccccn2c1C(=O)c1cc(Br)c(O)c(C#N)c1` [Form 8, 3-bromo-5-[(2-ethylimidazo[1,2-a]pyridin-3-yl)carbonyl]-2-hydroxybenzonitrile], the Solubility was 17.9 µg/mL (≈ 48.4 µM).

As to `CCc1nc2ccccn2c1C(=O)c1cc(Br)c(O)c(C#N)c1` [Form 11, 3-bromo-5-[(2-ethylimidazo[1,2-a]pyridin-3-yl)carbonyl]-2-hydroxybenzonitrile], the Solubility was found to be 31.0 µg/mL (≈ 83.7 µM).

Still in this data set, the particulars now being: water, shaken about 24 hours, compared with Form 1.
As for `CCc1nc2ccccn2c1C(=O)c1cc(Br)c(O)c(C#N)c1` [Form 6, 3-bromo-5-[(2-ethylimidazo[1,2-a]pyridin-3-yl)carbonyl]-2-hydroxybenzonitrile], the “Appearance / solubility in water” value was “reduced solubility in water”.

For the molecule `CCc1nc2ccccn2c1C(=O)c1cc(Br)c(O)c(C#N)c1` [Form 8, 3-bromo-5-[(2-ethylimidazo[1,2-a]pyridin-3-yl)carbonyl]-2-hydroxybenzonitrile], the “Appearance / solubility in water” value is on record as “reduced solubility in water”.

For the molecule `CCc1nc2ccccn2c1C(=O)c1cc(Br)c(O)c(C#N)c1` [Form 11, 3-bromo-5-[(2-ethylimidazo[1,2-a]pyridin-3-yl)carbonyl]-2-hydroxybenzonitrile], the “Appearance / solubility in water” value was “nearly clear solution in water”.

The next data set in a line: Solid state stability under stress conditions (XRPD, HPLC). It counts as physicochemical. The following applies: closed vial about 60° C.; closed vial about 40° C./75% RH; 1 week and 2 weeks. The method, then:
Form 1. Form 2, Form 6, Form 8, and Form 11 were each placed under following stress conditions: (1) in a closed vial at a temperature of about 60° C., and (2) in a closed vial at a temperature of about 40′° C. and a humidity of about 75% RH. The solids were analyzed with XRPD at 1 week and 2 weeks intervals.
Additionally, all forms were analyzed with HPLC for impurity at the 1 week and 2 weeks intervals. In a typical analysis, about 5 mg of forms were each dissolved in 10 ml of diluents with the aid of sonication for 2 minutes. THF was used as the diluent for Form 1, and methanol was used as the diluent for Form 6, Form 8, and Form 11. The HPLC analysis utilized Agilent Eclipse XDB-C18 4.6*150 mm. 3.5 μm at 30° C., a mobile phase of a gradient between 0.1% H3PO4 and acetonitrile (9:1 to 2:8 to 9:1), an injection volume of 10 μl, a flow rate of 1.0 ml/min, and a detection wavelength of 214 nm.
Form 2 was further subject to the stability test in an open vial at 40° C. and a relative humidity of 75% RH.
Consider `CCc1nc2ccccn2c1C(=O)c1cc(Br)c(O)c(C#N)c1` [Form 6, 3-bromo-5-[(2-ethylimidazo[1,2-a]pyridin-3-yl)carbonyl]-2-hydroxybenzonitrile], for which the “XRPD pattern after stress storage” value is reported as “substantially similar to those received at the initial time”.

Regarding `CCc1nc2ccccn2c1C(=O)c1cc(Br)c(O)c(C#N)c1` [Form 8, 3-bromo-5-[(2-ethylimidazo[1,2-a]pyridin-3-yl)carbonyl]-2-hydroxybenzonitrile], the “XRPD pattern after stress storage” value is “substantially similar to those received at the initial time”.

Consider `CCc1nc2ccccn2c1C(=O)c1cc(Br)c(O)c(C#N)c1` [Form 11, 3-bromo-5-[(2-ethylimidazo[1,2-a]pyridin-3-yl)carbonyl]-2-hydroxybenzonitrile], for which the “XRPD pattern after stress storage” value is “substantially similar to those received at the initial time”.

For orientation: Solubility means the concentration that dissolves in the medium under given conditions. A low value points to little dissolved substance.

Source of the values: patent US20250368639A1, “SOLID FORMS OF A COMPOUND FOR TREATING OR PREVENTING HYPERURICEMIA OR GOUT” (ATOM THERAPEUTICS CO., LTD, priority 2022, published 2025).
